From patent US10626421B2, “Use of uric acid for culturing bacteria sensitive to oxygen tension” (FONDATION MEDITERRANEE INFECTION, priority 2014, dated 2020)
“And” between values parts separate entries of the source, which are not always exact repeats. Equal entries are not always repeated. “Also recorded” adds a separate entry of the source. Where two headings read alike, the source gives them in different places.

Legend:
Clostridium butirycum = assay: Liquid hemoculture BD BACTEC Plus Aerobic/F, growth detection by CO2; assay type: cell-based; details: Aerobic with UA 400 mg/L
Method: Hemocultures of strict anaerobic bacteria were made, inoculated to 10^5 cfu/mL on a culture medium: BD BACTEC™ Plus Aerobic/F. comprising 25 ml of enriched Trypticase soya broth, with resines (Reference: 442192) at 37° C. in an aerobic atmosphere with uric acid a 400 mg/L and without uric acid and in an anaerobic atmosphere without uric acid. The detection of the growth was ensured by detection of the production of CO2 with the BD BACTEC™ 9000 Series Instrumented Blood Culture Systems device.

Clostridium perfringens = assay type: cell-based; details: Aerobic with UA 400 mg/L
[1] = system: Bacteroides thetaiotaomicron; assay type: cell-based
Clostridium tertium = assay: Liquid hemoculture BD BACTEC Plus Aerobic/F, growth detection by CO2; assay type: cell-based; details: Aerobic with UA 400 mg/L
[2] = system: Helicobacter cinaedi strain DSMZ 5359; assay: Aerobic culture in Schaedler medium with uric acid; details: without starch and glucose
anaerobic bacteria = assay: Culture on Columbia medium with 5% sheep blood in ambient air; assay type: cell-based; details: 1 mg/ml; ambient air or ambient air enriched with 5% of CO2
Method: These geloses inoculated with anaerobic bacteria were incubated either in ambient air or in ambient air enriched with 5% of CO2. […] These tests were conducted with a Columbia medium with 5% sheep blood having the following composition for 1 liter: […]

[3] = system: Bacteroides thetaiotaomicron; assay: Culture in Schaedler 0.2% agar tubes, height of growth; assay type: cell-based
[4] = single replicates, listed as UA

O=c1[nH]c(=O)c2[nH]c(=O)[nH]c2[nH]1 [uric acid, 7,9-dihydro-1H-purine-2,6,8(3H)-trione]
Averages (growth time) (Clostridium butirycum): 6.667
Growth time (Clostridium butirycum; [4]): 8 h and 6 h (2×)
Averages (growth time) (Clostridium perfringens): 6
Growth time (Clostridium perfringens; [4]): 7 h and 5 h and 6 h
growth with uric acid alone compared with mixture of uric acid, ascorbic acid and glutathion ([1]; 0.3 g/L of uric acid alone): greater
culture result with production of hydrogen ([1]; aerobic conditions, 24 hour incubation, 37° C., uric acid alone 0.1, 0.2 or 0.3 g/L, or 0.1 g/L each of ascorbic acid, uric acid, glutathion): positive culture
growth with uric acid alone compared with mixture of uric acid, ascorbic acid and glutathion ([1]; uric acid alone at least 0.2 g/L): equivalent
Averages (growth time) (Clostridium tertium): 4.333
Growth time (Clostridium tertium; [4]): 4 h (2×) and 5 h
time until bacterium established in culture [2]: ≤ 24 h
growth on Columbia medium with 5% sheep blood (anaerobic bacteria): Best growth
extent of culture in deoxygenated tube ([3]; 200 μg/ml): practically occurs up to the surface
extent of culture in deoxygenated tube ([3]; 500 μg/ml): completely up to the surface; also recorded: growth up to the surface
growth compared with ascorbic acid ([3]; 500 μg/ml, Schaedler 0.2% agar tubes): identical

O=C1O[C@H]([C@@H](O)CO)C(O)=C1O [ascorbic acid, reference compound]
growth on Columbia medium with 5% sheep blood (anaerobic bacteria): Best growth
